The results in this text go back to patent publication US8557864B2, “Agent having neurotrophic factor-like activity” (Nagoya Industrial Science Research Institute, priority 2007, dated 2013).

SMILES strings stand for the structures.

Assay type in all cases: in vivo
Test [1] has as its system mice under chronic mild stress. The experiment in a line: Tail suspension test after completion of stress. As for the experimental part: A site of 1 cm from the tip of the tail of a mouse was grasped by a hand, being apart from a floor from 10 cm, and an immobility time in suspension for 6 minutes was measured for 2 hours. Since the immobility time prolongs when the mouse has a depressive symptom (condition), a level of the depressive symptom (condition) can be evaluated from the length of the immobility time. FIGS. 6 and 7 show the results.
Example 2 is a behavior test in which the compound 8 was administered to a mouse as well as stress was applied and a suppression effect of the compound 8 on depressive and anxiety symptoms of the mouse was examined. On the other hand, the present example is a behavior test in which only stress was applied for 3 weeks without administering the compound 8 and stress was completed and a therapeutic effect of the compound 8 on depressive and anxiety symptoms of a mouse after removing stress was examined. Stress was applied to a mouse in the same manner as in Example 2. […]

In test [2] the test system is mice under chronic mild stress. Kind of test: Elevated plus maze test, compound given at the same time as stress. Conditions: 20, 100 and 500 μg/kg intraperitoneally with stress, 3 week and 1 week groups. As for the experimental part:
(§1) Mice under established chronic mild stress (hereinafter referred to as “stress”) were used for a depression and anxiety disorder-like model animal. Stress was applied as follows. 7-week-old male ddY strain mice fed in one cage for 4 mice were used and first subjected to forced swimming for 15 minutes. Then, the mice were fed in a sloped cage for 2 days, and then rested in a normal cage for 1 day. Then, the mice were fed in a dirt cage moisturized with 200 mL of water for 1 day and then rested in a normal cage for 1 day. Then, the mice were fed in a rotational cage that rotated at 180 rpm for 1 day, and then rested in a normal cage for 1 day. […] For 0 μg/kg administration examples of controls, a phosphoric acid buffer containing 0.1% DMSO (controls were expressed as “PBS” or “0 μg/kg” in the figure shown below) was administered in an amount of 0.25 mL to each of a stressed example and a non-stressed example. […]
In this test, an anxiety level can be evaluated from the time for being the open arm, and a behavior amount can be evaluated from the number of times of entering the closed arm. From the evaluations, when a mouse has an anxiety symptom (condition), the time for being in the open arm […], and thus, a level of the anxiety symptom (condition) can be evaluated from the length of the time. […]

A further test relates to mice. The experiment in a line: Novel object recognition test on mice. Conditions: 100 and 500 μg/kg intraperitoneally, healthy mice, test started after 2 hours. As for the experimental part:
A promotion activity of brain functions due to the compound 8 was examined using a novel object recognition test. The novel object recognition test is a method of evaluating memory and learning abilities from behaviors after showing a “familiar object” and a “novel object” to mice, utilizing the fact that the mice take exploration behaviors (behaviors such as coming closer to or smelling an object) when they find the “novel object”.
The compound 8 was dissolved in 0.1% DMSO to adjust a concentration so as to have each dose of 100 and 500 μg/kg and intraperitoneally injected to 6 mice in every administration example each in a dose of 0.25 mL. In a 0 μg/kg weight administration example of a control, 0.25 mL of a phosphoric acid buffer containing 0.1% DMSO was intraperitoneally injected. The compound 8 was administered to mice and the novel object recognition test was performed after 2 hours. That is, a mouse was put in a place where two identical objects were present for 15 minutes to let the mouse memorize the two objects (these two objects will be “familiar objects”). After the elapse of 1 day, an exploration behavior test in which the mouse was put in a place where the “familiar objects and “novel objects” were present was carried out for 10 minutes FIG. 33 show the results. Significance tests were performed in a Student's t-test (*) and a Turkey's test (##). […]

Test [3] concerns mice under chronic mild stress. The experiment in a line: Burying the glass-marbles test, compound given at the same time as stress. Conditions: 20, 100 and 500 μg/kg intraperitoneally once per day with stress; stressed 3 week- and 1 week-administration groups. As for the experimental part:
as §1
Tips were bedded so as to have a height of 5 cm in a box with […] and 25 glass marbles (1.6 cm in diameter) were placed thereon at 5 cm-interval and behaviors of mice were observed. […] Since a mouse under stress having an anxiety symptom (condition) takes such a behavior as burying glass marbles, a level of the anxiety symptom can be evaluated from the number of buried glass marbles.

As for `CCCCCCC/C=C/C(=O)OCC` [Compound 8, trans-2-decenoic acid ethyl ester], the “immobility time, stressed vs non-stressed example” value is “no significant difference” in test [1] (500 μg/kg, 1 week-administration groups after completion of stress) and “no significant difference” in test [1] (all administration examples, 2 week-administration groups after completion of stress). The “time for being in open arm, stressed vs non-stressed example” value in test [2] is listed as “no significant difference”. In test [2] (vs control (PBS) and stressed vs non-stressed), the “number of times of entering closed arm (behavior amount)” value was “no significant difference”. Also, the “recognition index of novel objects” value with mice was “became high”. Also, the “number of buried glass marbles, stressed vs non-stressed example” value in test [3] is given as “no significant difference”.
